# Data as given in patent US6740306B2, “Imidazotriazinone-containing compositions for nasal administration” (Bayer Aktiengesellschaft, priority 2002, dated 2004).
# Entries after “also recorded” stand apart in the source; their conditions may differ.
# Assay: Benzyl alcohol as additive on nasal administration of cGMP PDE inhibitors
# Format: in vivo
compound,measurement,value
OCc1ccccc1 [benzyl alcohol],Ability to reduce or prevent the disadvantages occurring on nasal administration of cGMP PDE inhibitors,unable to reduce or prevent the disadvantages; also recorded: unsuitable for overcoming the disadvantages
same,Local irritation of the nasal mucosa,led to local irritation of the nasal mucosa
